Source: BindingDB's records for doi:10.1016/s0960-894x(98)00562-9 (The Procter & Gamble, 1999)
pKi: −log10 of the molar value.

These compounds were tested against Plasmin (Homo sapiens) (assay: Inhibitory activity of compound against Plasmin (HP)).

| pKi | SMILES |
| --- | --- |
| 3.96 | CC(C)(C)[C@@H](NC(=O)N1CCOCC1)C(=O)NCC(=O)NC(Cc1ccc(NC(=N)N)cc1)C(=O)C(F)(F)F (stereo partly drawn) [Morpholine-4-carboxylic acid [(R)-2,2-dimethyl-1-({[3,3,3-trifluoro-1-(4-guanidino-benzyl)-2-oxo-propylcarbamoyl]-methyl}-carbamoyl)-propyl]-amide] |
| 7.40 | N=C(N)Nc1ccc(CC(NC(=O)[C@H](Cc2ccccc2)NC(=O)[C@@H](CCc2ccccc2)NC(=O)OC23CC4CC(CC(C4)C2)C3)C(=O)C(F)(F)F)cc1 (stereo partly drawn) [((R)-3-Phenyl-1-{(S)-2-phenyl-1-[3,3,3-trifluoro-1-(4-guanidino-benzyl)-2-oxo-propylcarbamoyl]-ethylcarbamoyl}-propyl)-carbamic acid adamantan-1-yl ester] |
| 7.22 | CC(C)(C)OC(=O)N[C@H](Cc1ccccc1)C(=O)N[C@H](C(=O)NC(Cc1ccc(NC(=N)N)cc1)C(=O)C(F)(F)F)c1ccc2ccccc2c1 (stereo partly drawn) [[(R)-1-({(S)-Naphthalen-2-yl-[3,3,3-trifluoro-1-(4-guanidino-benzyl)-2-oxo-propylcarbamoyl]-methyl}-carbamoyl)-2-phenyl-ethyl]-carbamic acid tert-butyl ester] |
| 6.92 | CC(C)(C)[C@@H](NC(=O)OC12CC3CC(CC(C3)C1)C2)C(=O)N[C@@H](Cc1ccccc1)C(=O)NC(Cc1ccc(NC(=N)N)cc1)C(=O)C(F)(F)F (stereo partly drawn) [((R)-2,2-Dimethyl-1-{(S)-2-phenyl-1-[3,3,3-trifluoro-1-(4-guanidino-benzyl)-2-oxo-propylcarbamoyl]-ethylcarbamoyl}-propyl)-carbamic acid adamantan-1-yl ester] |
